Like-named read-outs stand apart in the source and are kept apart here.
Key:
[1] = target: T1, human Kir6.2/SUR2B KATP channel (Homo sapiens, UniProt O60706); assay: FLIPR membrane potential assay in HEK-Kir6.2/SUR2B cells; type: cell-based
T1 construct: expressed in transfected cells
Description: The ability of CKLP1 and the active moiety of CKLP1, leveromakalim, to pharmacologically modulate the function of the human ATP-sensitive potassium channel comprised of Kir6.2 (encoded by the human gene KCNJ11) coupled to the sulfonylurea receptor SUR2B (encoded by the human gene ABCC9) was studied.
Compounds were dissolved up to 10 mM stock solution in DMSO. Ten-point concentration response curves were generated at 100× concentration in 100% DMSO. Compound source plates were made by serially diluting 10 mM compound stocks in DMSO to generate a progressive semilog dilution schema. Dose response stock plate (10 μL) were then transferred into assay plates containing 90 μL of assay buffer, generating 10× working concentrations. Final assay test concentration ranges of 100 μM to 0.003 μM with a final DMSO concentration of 1.0%.
Human embryonic kidney (HEK) cells stably expressing human Kir6.2/SUR2B KATP channel subunits were plated onto 96 well, black poly-d-lysine (PDL)-coated microplates and maintained in growth media the day prior to use for experiments. Media was removed from the plates and 90 μL of 1× stock of the membrane potential sensitive fluorescent dye FMP-Blue resuspended in assay buffer (EBSS—in mM: NaCl 145, KCl 2, Glucose 5, CaCl2) 1.8, MgCl2 0.8, HEPES 10, pH 7.4 with NaOH, 290-300 mOSm) was added to the cells. Cells were incubated at room temperature, protected from light, for 45-60 minutes. After the incubation period, cell, test compound and glibenclamide plates were loaded onto the fluorescence plate reader (FLIPR-TETRA™) and the scanning initiated. The FLIPR measured a 10 second baseline and then added 10 μL of 10× the final desired concentration of test agent. Changes in fluorescence were monitored for an additional 5 minutes. After the 5-minute compound incubation, 10 μL of the receptor inhibitor glibenclamide was added to the cell plate (10 uM final glibenclamide concentration). Changes in fluorescence was then monitored for an additional 5 minutes.
Compound modulation of Kir6.2/SUR2B KATP channel mediated changes in cellular membrane potential was determined as follows. After the administration of compound, FMP fluorescence was monitored for a 5-minute period. The following parameters were recorded and exported from the FLIPR: the average relative fluorescence response (RFU) of 5 images taken at the 5-minute point in the assay with the average background EBSS buffer response subtracted. […] Test agent effect was calculated as % activation using the following formula: […]
Curve fits were performed in GraphPad Prism graphing software using a 4-parameter, variable slope fit equation.

[2] = Concentration of CKLP1 and levcromakalim in ocular and systemic tissues of hound dogs; type: in vivo, hound dog; details: for concentration at 23 h: hound, dog, 23 hours after last dose
Description: After blood collection for pharmacokinetic studies, bilateral ocular treatment with CKLP1 (10 mM) continued in the hound dogs for 4-5 additional days.
For ocular tissue collection, eyes were enucleated and aqueous humor, vitreous humor, trabecular meshwork, optic nerve, ciliary body, iris, retina and cornea were isolated and stored at −80° C. While collecting tissues during necropsy, portions of heart, kidney, lung, brain, liver and skeletal muscle were immediately frozen for pharmacodynamics analysis, while the remaining tissue samples were immediately fixed in 10% neutral buffered formalin.
(§1) Immediately prior to analysis, tissues were thawed and their weight was measured. PBS was added at double the tissue volume homogenized in a rotor stator homogenizer for 30 seconds. […] Detection was accomplished using positive electrospray ionization with multiple-reaction monitoring (MRM). […] Data were acquired and analyzed using Waters MassLynx v4.1 software.

[3] = Plasma pharmacokinetics of CKLP1 and levcromakalim after topical dosing in hound dogs; type: in vivo, hound dog
Description: To assess the pharmacokinetic parameters, hound dogs (n=3) were treated with 50 μL topical ocular administration of 10 mM CKLP1 or vehicle (PBS) (n=2) in both eyes, once daily for eight days. Blood (approximately 3 mL) was collected in heparin blood collection tubes at eight different time points (5 minutes, 15 minutes, 30 minutes, 60 minutes, 2 hours, 4 hours, 8 hours and 24 hours) following treatment on days 1, 4 and 8. Plasma was separated from the blood by centrifugation at 2000 rpm for 5 minutes.
as §1

[4] = hound, dog, plasma, topical or ocular, 10 mM CKLP1, 50 µL in each of both eyes, levcromakalim after topical 10 mM CKLP1 once daily, Day 1
[5] = hound, dog, plasma, topical or ocular, 10 mM CKLP1, 50 µL in each of both eyes, levcromakalim after topical 10 mM CKLP1 once daily, Day 4
[6] = hound, dog, plasma, topical or ocular, 10 mM CKLP1, 50 µL in each of both eyes, levcromakalim after topical 10 mM CKLP1 once daily, Day 8
[7] = levcromakalim after topical 10 mM CKLP1 once daily, Day 1
[8] = levcromakalim after topical 10 mM CKLP1 once daily, Day 4
[9] = levcromakalim after topical 10 mM CKLP1 once daily, Day 8

T1 sequence (O60706 1-1549 isoform O60706-2): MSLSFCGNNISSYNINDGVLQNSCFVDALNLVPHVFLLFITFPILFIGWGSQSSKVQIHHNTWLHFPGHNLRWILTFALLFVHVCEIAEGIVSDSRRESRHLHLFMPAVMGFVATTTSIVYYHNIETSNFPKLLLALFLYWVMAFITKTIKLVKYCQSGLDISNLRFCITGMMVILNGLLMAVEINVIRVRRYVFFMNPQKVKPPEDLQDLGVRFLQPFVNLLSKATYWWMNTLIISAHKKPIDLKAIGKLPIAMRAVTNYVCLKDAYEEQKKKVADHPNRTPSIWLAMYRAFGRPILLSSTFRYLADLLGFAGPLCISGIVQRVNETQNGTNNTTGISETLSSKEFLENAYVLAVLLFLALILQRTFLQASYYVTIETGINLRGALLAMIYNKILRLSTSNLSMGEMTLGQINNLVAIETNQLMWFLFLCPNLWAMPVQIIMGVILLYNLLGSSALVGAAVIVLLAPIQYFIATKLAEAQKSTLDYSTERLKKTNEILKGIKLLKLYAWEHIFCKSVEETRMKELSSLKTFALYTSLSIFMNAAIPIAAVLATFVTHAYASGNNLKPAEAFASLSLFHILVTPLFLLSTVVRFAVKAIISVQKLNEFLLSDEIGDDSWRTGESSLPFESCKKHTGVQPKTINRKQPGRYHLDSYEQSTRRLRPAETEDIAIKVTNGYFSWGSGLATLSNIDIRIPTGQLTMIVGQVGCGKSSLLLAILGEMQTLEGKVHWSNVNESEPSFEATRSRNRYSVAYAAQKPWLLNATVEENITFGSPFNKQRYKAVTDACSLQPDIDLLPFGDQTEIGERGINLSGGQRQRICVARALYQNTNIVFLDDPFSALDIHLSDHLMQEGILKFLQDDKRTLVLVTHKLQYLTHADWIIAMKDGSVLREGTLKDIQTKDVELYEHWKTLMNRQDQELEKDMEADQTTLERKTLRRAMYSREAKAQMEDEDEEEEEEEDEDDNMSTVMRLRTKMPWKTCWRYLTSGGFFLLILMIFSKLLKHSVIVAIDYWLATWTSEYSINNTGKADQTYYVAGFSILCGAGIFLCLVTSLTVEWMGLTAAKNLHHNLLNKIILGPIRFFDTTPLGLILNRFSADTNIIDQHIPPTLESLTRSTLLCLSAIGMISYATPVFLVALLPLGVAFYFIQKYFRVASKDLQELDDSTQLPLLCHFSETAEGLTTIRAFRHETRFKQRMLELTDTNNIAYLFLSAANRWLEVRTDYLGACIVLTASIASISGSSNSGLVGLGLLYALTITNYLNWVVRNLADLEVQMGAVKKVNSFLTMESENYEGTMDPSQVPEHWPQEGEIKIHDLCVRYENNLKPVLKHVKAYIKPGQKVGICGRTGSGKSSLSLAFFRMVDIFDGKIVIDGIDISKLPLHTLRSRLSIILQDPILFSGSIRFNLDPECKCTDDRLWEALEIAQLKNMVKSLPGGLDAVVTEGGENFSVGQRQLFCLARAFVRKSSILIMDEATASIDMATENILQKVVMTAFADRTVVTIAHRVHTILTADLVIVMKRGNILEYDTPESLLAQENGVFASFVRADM
T1 sequence (Q14654 whole entry partner): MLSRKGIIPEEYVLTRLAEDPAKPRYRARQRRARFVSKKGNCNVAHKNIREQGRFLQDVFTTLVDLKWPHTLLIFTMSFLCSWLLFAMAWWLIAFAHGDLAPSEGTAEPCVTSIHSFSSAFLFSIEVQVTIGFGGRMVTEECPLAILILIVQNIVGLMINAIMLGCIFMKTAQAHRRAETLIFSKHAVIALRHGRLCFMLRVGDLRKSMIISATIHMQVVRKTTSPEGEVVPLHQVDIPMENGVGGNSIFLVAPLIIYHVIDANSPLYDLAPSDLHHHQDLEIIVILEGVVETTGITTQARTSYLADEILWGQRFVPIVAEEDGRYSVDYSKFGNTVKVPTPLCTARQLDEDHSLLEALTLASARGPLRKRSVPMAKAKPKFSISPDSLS

## CC1(C)Oc2ccc(C#N)cc2[C@@H](N2CCCC2=O)[C@@H]1O [Levcromakalim, levcromakalim, reference compound]
[1]; glibenclamide 10 μM
  hyperpolarization reversed by coadministration of glibenclamide: reversed
[1]; up to 100 μM
  hyperpolarization / activation of Kir6.2/SUR2B KATP channels: concentration-dependent hyperpolarization
[2]; aqueous humor, topical 10 mM CKLP1 12-13 days, two animals, read-out: concentration in aqueous humor
  concentration at 23 h: 1.1 ± 1.5 ng/mL
[2]; ciliary body, topical 10 mM CKLP1 12-13 days, two animals, read-out: concentration in ciliary body
  concentration at 23 h: < 1 ng/g
[2]; cornea, topical 10 mM CKLP1 12-13 days, two animals, read-out: concentration in cornea
  concentration at 23 h: 1.4 ± 0.3 ng/g
[2]; heart, topical 10 mM CKLP1 12-13 days, read-out: concentration in heart
  concentration at 23 h: 0.9 ± 0.8 ng/g
[2]; iris, topical 10 mM CKLP1 12-13 days, two animals, read-out: concentration in iris
  concentration at 23 h: < 1 ng/g
[2]; kidney, topical 10 mM CKLP1 12-13 days, read-out: concentration in kidney
  concentration at 23 h: 0.8 ± 1.2 ng/g
[2]; lung, topical 10 mM CKLP1 12-13 days, read-out: concentration in lung
  concentration at 23 h: 0.3 ± 0.4 ng/g
[2]; optic nerve, topical 10 mM CKLP1 once daily 12-13 days, two animals, read-out: concentration in optic nerve
  concentration at 23 h: < 1 ng/g
[2]; retina, topical 10 mM CKLP1 12-13 days, two animals, read-out: concentration in retina
  concentration at 23 h: < 1 ng/g
[2]; trabecular meshwork, topical 10 mM CKLP1 12-13 days, two animals, read-out: concentration in trabecular meshwork
  concentration at 23 h: 2 ± 0.5 ng/g
[2]; vitreous humor, topical 10 mM CKLP1 12-13 days, two animals, read-out: concentration in vitreous humor
  concentration at 23 h: < 1 ng/g
[2]; topical 10 mM CKLP1 12-13 days
  concentration in urine: 3.7 ± 4.5 ng/mL
[3]; after topical 10 mM CKLP1
  Maximum concentration of levcromakalim in plasma: 1.2 ± 0.2 ng/mL
[3]; after topical CKLP1
  concentration of levcromakalim found in plasma: 1 ng/mL
[3]; hound, dog, plasma, topical or ocular, 10 mM
  AUC: 3.88 ng·h/mL
[3]; [4]
  AUC(0-t): 5.09 ng·h/mL
  Cmax: 1.3 ng/mL
[3]; hound, dog, plasma, topical or ocular, 10 mM CKLP1, 50 µL in each of both eyes, levcromakalim after topical 10 mM CKLP1 once daily, Day 1, read-out: Tmax (converted)
  Tmax: 2 h
[3]; [5]
  AUC(0-t): 6.3 ng·h/mL
  Cmax: 1.4 ng/mL
[3]; hound, dog, plasma, topical or ocular, 10 mM CKLP1, 50 µL in each of both eyes, levcromakalim after topical 10 mM CKLP1 once daily, Day 4, read-out: Tmax (converted)
  Tmax: 2 h
[3]; [6]
  AUC(0-t): 2.67 ng·h/mL
  Cmax: 1 ng/mL
[3]; hound, dog, plasma, topical or ocular, 10 mM CKLP1, 50 µL in each of both eyes, levcromakalim after topical 10 mM CKLP1 once daily, Day 8, read-out: Tmax (converted)
  Tmax: 2 h
[3]; hound, dog, plasma, topical or ocular, 10 mM, levcromakalim after topical 10 mM CKLP1 once daily, Day 1
  half-life: 1.24 h
[3]; hound, dog, plasma, topical or ocular, 10 mM, levcromakalim after topical 10 mM CKLP1 once daily, Day 4
  half-life: 1.46 h
[3]; hound, dog, plasma, topical or ocular, 10 mM, levcromakalim after topical 10 mM CKLP1 once daily, Day 8
  half-life: 2.11 h
[3]; hound, dog, plasma, topical or ocular, 10 mM, time of maximum concentration (Tmax) of levcromakalim, after topical 10 mM CKLP1
  Tmax: ~2 h
[3]; hound, dog, plasma, topical, 10 mM, as stated in the summary
  half-life: 2 h
[3]; [7]
  Clast: 0.1 ng/mL
  Tlast: 480 min
[3]; [8]
  Clast: 0.1 ng/mL
  Tlast: 480 min
[3]; [9]
  Clast: 0.5 ng/mL
  Tlast: 240 min

Source: US20220387457A1 (Qlaris Bio, Inc., priority 2020, published 2022)
